In PubChem BioAssay AID1918948 (Molecular Pharmacology Branch, DTP, NCI, 2023):
Several values for one entry are separate records, joined by “and”; a condition that tells them apart may be missing. Equal values may be shown once.

System: K-562 leukemia growth, % test/control
Experiment: Anticancer human tumor K-562 cell line growth inhibition;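 further: spheroids exposed to compounds for 7 days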;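 on viability, T/C: 100% = DMSO vehicle wells and lower values mean fewer viable cells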
Details: spheroids with HUVEC and MSC; for viability, T/C: stronger effect = lower value
Procedure, shortened: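 Drug combinations with the LSD1 inhibitor iadademstat tested on tumor cells co-cultured as spheroids with endothelial cells and mesenchymal stem cells. Concentrations descended in half-log increments from clinical Cmax or 10 microM.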

[1] = curve of first compound, second compound 0.1 µM
[2] = curve of first compound, second compound 0.316 µM
[3] = curve of first compound, second compound 1 µM
[4] = curve of first compound, second compound 3.16 µM
[5] = curve of first compound, second compound 10 µM
[6] = second compound 0.1 µM, first compound 0.00316 µM
[7] = second compound 0.1 µM, first compound 0.01 µM
[8] = second compound 0.1 µM, first compound 0.0316 µM
[9] = second compound 0.1 µM, first compound 0.1 µM
[10] = second compound 0.316 µM, first compound 0.00316 µM
[11] = second compound 0.316 µM, first compound 0.01 µM
[12] = second compound 0.316 µM, first compound 0.0316 µM
[13] = second compound 0.316 µM, first compound 0.1 µM
[14] = second compound 1 µM, first compound 0.00316 µM
[15] = second compound 1 µM, first compound 0.01 µM
[16] = second compound 1 µM, first compound 0.0316 µM
[17] = second compound 1 µM, first compound 0.1 µM
[18] = second compound 3.16 µM, first compound 0.00316 µM
[19] = second compound 3.16 µM, first compound 0.01 µM
[20] = second compound 3.16 µM, first compound 0.0316 µM
[21] = second compound 3.16 µM, first compound 0.1 µM
[22] = second compound 10 µM, first compound 0.00316 µM
[23] = second compound 10 µM, first compound 0.01 µM
[24] = second compound 10 µM, first compound 0.0316 µM
[25] = second compound 10 µM, first compound 0.1 µM

`Nc1ncn(C2CC(O)C(CO)S2)c(=O)n1` (stereo unspecified) + NC1CCC(NC2CC2c2ccccc2)CC1 gave an IC50 [1] of 175 nM, an IC50 [2] of 171 nM and an IC50 [3] of 148 nM. For the same compound, the IC50 [4] was 136 nM, the IC50 [5] was 60 nM and the viability, T/C (second compound 0.1 µM, first compound 0.000949 µM) was 102%. The viability, T/C (second compound 0.1 µM, first compound 0.003 µM) was 106%, the viability, T/C (second compound 0.1 µM, first compound 0.00949 µM) was 107% and the viability, T/C (second compound 0.1 µM, first compound 0.03 µM) was 95.6%. For the same compound, the viability, T/C (second compound 0.1 µM, first compound 0.0949 µM) was 69%, the viability, T/C (second compound 0.1 µM, first compound 0.3 µM) was 33.5% and the viability, T/C (second compound 0.316 µM, first compound 0.000949 µM) was 106%. For the same compound, the viability, T/C (second compound 0.316 µM, first compound 0.003 µM) was 108%, the viability, T/C (second compound 0.316 µM, first compound 0.00949 µM) was 108% and the viability, T/C (second compound 0.316 µM, first compound 0.03 µM) was 95.7%. It also gave a viability, T/C (second compound 0.316 µM, first compound 0.0949 µM) of 68%, a viability, T/C (second compound 0.316 µM, first compound 0.3 µM) of 33% and a viability, T/C (second compound 1 µM, first compound 0.000949 µM) of 108%. It also gave a viability, T/C (second compound 1 µM, first compound 0.003 µM) of 110%, a viability, T/C (second compound 1 µM, first compound 0.00949 µM) of 107% and a viability, T/C (second compound 1 µM, first compound 0.03 µM) of 94.3%. For the same compound, the viability, T/C (second compound 1 µM, first compound 0.0949 µM) was 65.2%, the viability, T/C (second compound 1 µM, first compound 0.3 µM) was 26.6% and the viability, T/C (second compound 3.16 µM, first compound 0.000949 µM) was 108%. The viability, T/C (second compound 3.16 µM, first compound 0.003 µM) was 111%, the viability, T/C (second compound 3.16 µM, first compound 0.00949 µM) was 106% and the viability, T/C (second compound 3.16 µM, first compound 0.03 µM) was 89.2%. It also gave a viability, T/C (second compound 3.16 µM, first compound 0.0949 µM) of 60.3%, a viability, T/C (second compound 3.16 µM, first compound 0.3 µM) of 28.4% and a viability, T/C (second compound 10 µM, first compound 0.000949 µM) of 102%. For the same compound, the viability, T/C (second compound 10 µM, first compound 0.003 µM) was 107%, the viability, T/C (second compound 10 µM, first compound 0.00949 µM) was 95.9% and the viability, T/C (second compound 10 µM, first compound 0.03 µM) was 70.7%. For the same compound, the viability, T/C (second compound 10 µM, first compound 0.0949 µM) was 36.5% and the viability, T/C (second compound 10 µM, first compound 0.3 µM) was 18.6%.

For `CC1COCCN1c1cc(-c2ccnn2C)c2ccnc(-c3ccn[nH]3)c2n1` (stereo unspecified) + NC1CC1c1ccc(-c2cccc(O)c2)cc1, the IC50 [1] was under 3.16 nM, the IC50 [2] was under 3.16 nM and the IC50 [3] was under 3.16 nM. For the same compound, the IC50 [4] was under 3.16 nM, the IC50 [5] was under 3.16 nM and the viability, T/C [6] was 28.6%. The viability, T/C [7] was 16.1%, the viability, T/C [8] was 2.71% and the viability, T/C [9] was 1.86%. It also gave a viability, T/C (second compound 0.1 µM, first compound 0.316 µM) of 2.44%, a viability, T/C (second compound 0.1 µM, first compound 1 µM) of 2.27% and a viability, T/C [10] of 24.4%. It also gave a viability, T/C [11] of 10.3%, a viability, T/C [12] of 2.23% and a viability, T/C [13] of 1.78%. For the same compound, the viability, T/C (second compound 0.316 µM, first compound 0.316 µM) was 1.8%, the viability, T/C (second compound 0.316 µM, first compound 1 µM) was 1.5% and the viability, T/C [14] was 16.4%. The viability, T/C [15] was 7.71%, the viability, T/C [16] was 2.17% and the viability, T/C [17] was 1.57%. It also gave a viability, T/C (second compound 1 µM, first compound 0.316 µM) of 1.71%, a viability, T/C (second compound 1 µM, first compound 1 µM) of 1.4% and a viability, T/C [18] of 10.6%. The viability, T/C [19] was 5.99%, the viability, T/C [20] was 2.11% and the viability, T/C [21] was 1.71%. It also gave a viability, T/C (second compound 3.16 µM, first compound 0.316 µM) of 1.83%, a viability, T/C (second compound 3.16 µM, first compound 1 µM) of 1.4% and a viability, T/C [22] of 6.46%. For the same compound, the viability, T/C [23] was 4.59%, the viability, T/C [24] was 2.33% and the viability, T/C [25] was 1.51%. For the same compound, the viability, T/C (second compound 10 µM, first compound 0.316 µM) was 1.64% and the viability, T/C (second compound 10 µM, first compound 1 µM) was 1.74%.

In the case of `Cn1ncnc1C1c2n[nH]c(=O)c3cc(F)cc(c23)NC1c1ccc(F)cc1` (stereo unspecified), the viability, T/C (compound 0.000316 µM) is reported as 104% and 106%, the viability, T/C (compound 0.001 µM) is reported as 95.2% and 105% and the viability, T/C (compound 0.00316 µM) is reported as 98.8% and 96.9%. The viability, T/C (compound 0.01 µM) was 98.7% and 102%, the viability, T/C (compound 0.0316 µM) was 99.4% and 102% and the viability, T/C (compound 0.1 µM) was 96.7% and 97.5%. The IC50 (curve of compound) was over 100 nM.

`CC[C@@]1(O)C(=O)OCc2c1cc1n(c2=O)Cc2cc3c(CN(C)C)c(O)ccc3nc2-1` + NC1CCC(NC2CC2c2ccccc2)CC1 was tested, and the IC50 [1] was 1.7 nM, the IC50 [2] was 1.73 nM and the IC50 [3] was 1.69 nM. The IC50 [4] was 1.77 nM, the IC50 [5] was 1.53 nM and the viability, T/C (second compound 0.1 µM, first compound 0.000316 µM) was 98.9%. For the same compound, the viability, T/C (second compound 0.1 µM, first compound 0.001 µM) was 63.2%, the viability, T/C [6] was 34.7% and the viability, T/C [7] was 16.3%. The viability, T/C [8] was 8.26%, the viability, T/C [9] was 4.03% and the viability, T/C (second compound 0.316 µM, first compound 0.000316 µM) was 101%. It also gave a viability, T/C (second compound 0.316 µM, first compound 0.001 µM) of 64.6%, a viability, T/C [10] of 33.9% and a viability, T/C [11] of 15.8%. For the same compound, the viability, T/C [12] was 7.94%, the viability, T/C [13] was 3.55% and the viability, T/C (second compound 1 µM, first compound 0.000316 µM) was 99.5%. The viability, T/C (second compound 1 µM, first compound 0.001 µM) was 64.5%, the viability, T/C [14] was 32.8% and the viability, T/C [15] was 14.4%. For the same compound, the viability, T/C [16] was 6.59%, the viability, T/C [17] was 3.47% and the viability, T/C (second compound 3.16 µM, first compound 0.000316 µM) was 97.6%. For the same compound, the viability, T/C (second compound 3.16 µM, first compound 0.001 µM) was 65.3%, the viability, T/C [18] was 34.5% and the viability, T/C [19] was 15.1%. It also gave a viability, T/C [20] of 7.29%, a viability, T/C [21] of 4.79% and a viability, T/C (second compound 10 µM, first compound 0.000316 µM) of 94.3%. For the same compound, the viability, T/C (second compound 10 µM, first compound 0.001 µM) was 62.6%, the viability, T/C [22] was 28.1% and the viability, T/C [23] was 12.8%. For the same compound, the viability, T/C [24] was 5.5% and the viability, T/C [25] was 2.86%.

`Nc1ccccc1NC(=O)c1ccc(CNC(=O)OCc2cccnc2)cc1` was tested, and the viability, T/C (compound 0.00949 µM) was 107% and 112%, the viability, T/C (compound 0.03 µM) was 101% and 110% and the viability, T/C (compound 0.0949 µM) was 103% and 106%. For the same compound, the viability, T/C (compound 0.3 µM) was 74.6% and 11.2%, the viability, T/C (compound 0.949 µM) was 4.47% and 0.45% and the viability, T/C (compound 3 µM) was 0.26% and 0.16%. The IC50 (curve of compound) was 449 nM and 188 nM.

With `CC(C)CC(NC(=O)CNC(=O)c1cc(Cl)ccc1Cl)B1OC(=O)CC(CC(=O)O)(C(=O)O)O1` (stereo unspecified) the viability, T/C (compound 0.000316 µM) was 103% and 97%, the viability, T/C (compound 0.001 µM) was 97.5% and 95.5% and the viability, T/C (compound 0.00316 µM) was 95.6% and 97.4%. For the same compound, the viability, T/C (compound 0.01 µM) was 74.2% and 68.6%, the viability, T/C (compound 0.0316 µM) was 24.2% and 13.3% and the viability, T/C (compound 0.1 µM) was 6.61% and 2.45%. For the same compound, the IC50 (curve of compound) was 17.4 nM and 14.8 nM.
